From patent US6869791B2, “Method for sterilizing transformed cells” (Sumitomo Chemical Company, Ltd., priority 2000, dated 2005)
Like-named read-outs stand apart in the source and are kept apart here.

How the values were obtained:
[1] = system: esterase in culture broth of E. coli JM105/pYHNK 2 strain
Procedure: 0.02 g of N-benzylazetidin-2-carboxyilic acid ethyl ester, 1.0 ml t-butyl methyl ether and 3.5 ml of 100 mM monopotassium phosphate-dipotassium phosphate buffer (pH 7.0) were added in a 10 ml threaded test tube and kept at 35′ for 15 minutes. 200 μl of the esterase solution was put in the test tube to measure its esterase activity and shaken reciprocally (120 str/min) at 35° C. for 16 minutes. Then 400% 1 of the mixed solution was centrifuged (12000 rpm, 5 minutes) after 1 ml t-butyl methyl ether was added and stirred. 200 μl of the obtained aqueous phase was analyzed quantitatively (by absolute calibration curve method) with respect to N-benzylazetidin-2-carboxylic acid by high performance liquid chromatography after dissolved in 20 mM phosphate acid monopotassium water/acetonitrile=90/10 and filtered by a 0.2 μl filter.

[2] = system: E. coli JM105/pYHNK 2 strain; type: cell-based, Escherichia coli
[3] = system: E. coli JM105/pEAR5 strain; settings: stirred 24 hours at 30° C.
Procedure: (§1) Number of viable cells was determined by the following method.
(§2) About 1 ml of a sample solution to be measured with the number of viable cells was diluted with physiological saline cooled to 4° C. 100 μl of the diluted solution was applied onto a LB-medium plate (L-Broth Ager (manufactured by BIO 101 Company, Ltd) containing ampicilline at a concentration of 100 μ/ml and kept at 37° C. for 1 to 2 days. Thereafter, number of the viable cells was calculated from the number of colonies grown thereon.

[4] = system: E. coli JM 105/pCC160S189Y363term strain; settings: stirred 24 hours at 30° C.
Procedure: as §1, §2

[5] = system: esterase derived from Arthrobacter SC-6-98-28 in culture broth of E. coli JM105/pEAR5 strain; settings: stirred 24 hours at 30° C.
Procedure: Measurement of the Esterase Activity in Example 13 and 14:
To 5 ml of a diluted solution of the culture broth or sterilized solution obtained by the pre sent method was added 1 g of 2,2-dichloro-3-(1-propenyl)cyclopropane-1-carboxylic acid methyl ester (1R/1S=50/50, trans/cis98/2) and the resulting mixture was stirred at 45° C. for 30 minutes while maintaining the pH at 10.0. A portion of the reaction solution was sampled, acidified with hydrochloric acid, and extracted with ethyl acetate. The extract solution was analyzed by gas-chromatography to measure the hydrolysis rate (Internal standard: methyl cinnamate, column: HR20M 0.53 φ, 30 m, 1 μ, ULBON). The esterase activity was calculated from the hydrolysis rate.

[6] = system: esterase derived from Chromobacterium SC-YM-1 (160S, 189Y mutant) in culture broth of E. coli JM 105/pCC160S189Y363term strain; settings: stirred 24 hours at 30° C.
Procedure: Measurement of the enzyme activity was performed by using p-nitrophenyl acetate (pNPA) as a substrate. A sample enzyme solution was added to a 3.0 ml of 100 mM phosphate buffer solution (pH 7.5) containing the substrate at a concentration of 5 mM and the resulting mixture is maintained at 37° C. An amount of liberated p-nitrophenol was measured by the increase of absorbance at 405 nm.

[7] = Example 9: 40 ml culture broth + 10 ml acetone, stirred 24 hours at 30° C.
[8] = Example 10: 40 ml culture broth + 10 ml acetone, stirred 6 hours at 30° C.
[9] = Example 11: 40 ml culture broth + 10 ml acetone, stirred 48 hours at 30° C.
[10] = Example 12: 40 ml culture broth + 6.5 ml acetone, stirred 24 hours at 30° C.
[11] = Example 13: 45 g culture broth + 5 g ethanol
[12] = Example 14: 37.5 g culture broth + 12.5 g ethanol
[13] = Example 15: 45 g culture broth + 5 g ethanol
[14] = Example 16: 37.5 g culture broth + 12.5 g ethanol
[15] = Example 1: 40 ml culture broth + 10 ml ethanol, stirred 24 hours at 30° C.
[16] = Example 2: 40 ml culture broth + 10 ml ethanol, stirred 6 hours at 30° C.
[17] = Example 3: 40 ml culture broth + 10 ml ethanol, stirred 48 hours at 30° C.
[18] = Example 4: 42.5 ml culture broth + 7.5 ml ethanol, stirred 24 hours at 30° C.
[19] = Example 5: 40 ml culture broth + 10 ml methanol, stirred 24 hours at 30° C.
[20] = Example 6: 40 ml culture broth + 10 ml methanol, stirred 6 hours at 30° C.
[21] = Example 7: 40 ml culture broth + 10 ml methanol, stirred 48 hours at 30° C.
[22] = Example 8: 40 ml culture broth + 10 ml methanol, stirred 5 hours at 25° C.

CC(C)=O [acetone]
≥ 95%: esterase activity of the mixed solution, relative to culture broth (1) [1, 7] | esterase activity of the mixed solution, relative to culture broth (1) [1, 8] | esterase activity of the mixed solution, relative to culture broth (1) [1, 9] | esterase activity of the mixed solution, relative to culture broth (1) [1, 10]
0 cfu/ml: viable cell number [2, 7] | viable cell number [2, 8] | viable cell number [2, 9] | viable cell number [2, 10]

CCO [ethanol]
0 cfu/ml: viable cell number [3, 11] | viable cell number [3, 12] | viable cell number [4, 13] | viable cell number [4, 14] | viable cell number [2, 15] | viable cell number [2, 16] | viable cell number [2, 17] | viable cell number [2, 18]
≥ 95%: esterase activity of the mixed solution, relative to culture broth (1) [1, 15] | esterase activity of the mixed solution, relative to culture broth (1) [1, 16] | esterase activity of the mixed solution, relative to culture broth (1) [1, 17] | esterase activity of the mixed solution, relative to culture broth (1) [1, 18] | esterase activity of the solution, relative to culture broth (2) [5, 11] | esterase activity of the solution, relative to culture broth (2) [5, 12] | esterase activity of the solution, relative to culture broth (3) [6, 13] | esterase activity of the solution, relative to culture broth (3) [6, 14]

CO [methanol]
≥ 92%: esterase activity of the mixed solution, relative to culture broth (1) [1, 22]
0 cfu/ml: viable cell number [2, 19] | viable cell number [2, 20] | viable cell number [2, 21] | viable cell number [2, 22]
≥ 95%: esterase activity of the mixed solution, relative to culture broth (1) [1, 19] | esterase activity of the mixed solution, relative to culture broth (1) [1, 20] | esterase activity of the mixed solution, relative to broth solution (1) [1, 21]
